This is an account of results in patent US20060247156A1, “Use of neuropeptides for ligament, cartilage, and bone healing” (priority 2004, published 2006).

“Also recorded” adds a separate entry of the source.

The test system of this assay is ruptured MCL of a FNT rat. As to the kind of experiment: Local neuropeptide delivery to ruptured MCL of femoral nerve transected (FNT) rats: mechanical testing, histomorphology. The format is in vivo. The settings on record: for failure force / ultimate stress / mechanical strength of healing MCL (in words): two weeks of healing; for mechanical strength of healing MCL (in words): local delivery of SP or CGRP. From the text:
Surgical Procedure: Thirteen female Wistar rats (278 g to 315 g) were divided into two groups: femoral nerve transection (FNT) or sham control. All rats were anesthetized with isofluorane (isofluorane 0.5-3%). […] Skin covering the anterior inguinal region was shaved and prepared for surgery. A skin incision approximately 15 mm long was made and the fascia distal to the inguinal was incised. The femoral artery, vein, and nerve were exposed and the femoral nerve was isolated and transected (with removal of a 5 mm segment of the nerve) using 3-0 dexon suture. The fascia and skin were closed in two layers with 3-0 continuous dexon suture. Immediately following FNT, rats from each group (n=4 FNT; n=3 controls) underwent a complete surgical rupture of the MCL to one knee. The contra-lateral knee underwent sham surgery. Two weeks post-knee surgery, rats were sacrificed using an overdose of pentobarbitone (150 mg/kg).
Local delivery of NPs and NP inhibitors is important to identify the specific roles of individual NPs on healing tissues. […] Briefly, NP infused mini-osmotic pumps were implanted subcutaneously into the back of rats. A small catheter running from the pump to an intramuscular space above the MCL was secured to the rat.
To test whether sensory NPs improve healing in femoral nerve transection (FNT) ruptured MCLs, three female Wistar rats (199 g to 203 g) were given SP locally to the MCL. Substance P (103 pg/μl) was infused into a miniosmotic pump and was delivered to a ruptured MCL of a FNT rat (see surgical procedure in Example 1 above). […] The results are presented graphically in FIG. 5
Animal Model and Surgery: Thirty-seven female Wistar rats (199-298 g) were divided into five groups. […] Rats that were designated to receive NPY, VIP, or a combination of NPY and VIP underwent bilateral surgical sympathectomy. Following surgical nerve transection, each rat also underwent bilateral MCL rupture. Neuropeptides were then delivered ruptured MCLs unilaterally. Neuropeptide infused mini-osmotic pumps (Alzet Corp.) were implanted subcutaneously into the back of each rat. A small catheter running from the pump was run to an intramuscular space above the MCL and was secured. To ensure that neuropeptides are delivered directly to the MCL, rhodamine labeled SP was delivered via a catheter to the MCL (n=2 rats).
To test whether autonomic NPs improve healing in SS ruptured MCLs, seven rats were given VIP, seven rats were given NPY, and seven rats were given a combination of VIP and NPY.
Mechanical Testing: Mechanical testing was performed as described in the preceding examples. Briefly, animal hind limbs from all groups (n=4 for all groups) were disarticulated at the hip joint and stored at −80° C. until testing. On the day of testing, MCLs including intact femoral and tibial bone sections were excised for ex vivo testing. Ligament thickness and width was measured optically, and MCL area was estimated with elliptical geometry. For strain measurements, optical markers were placed onto the ligament tissue near the insertion sites. A small preload of 0.1N was applied to the ligaments in order to obtain a uniform starting point. The ligaments were then preconditioned to 1% strain for 10 cycles. After preconditioning, ligaments were pulled to failure at a rate of ˜10% per second. Tissue displacement was obtained using video dimensional analysis using equations (1) and (2) supra. The mechanical properties that were examined in this study were maximum force, ultimate stress, strain at failure, elastic modulus, and area.

The mark [1] stands for this setting: Example 3: SP 103 pg/μl via mini-osmotic pump to ruptured MCL of FNT rat.
Where [2] appears, read: Example 6: SP 75 pg/100 μl via mini-osmotic pump, FNT rats, bilateral MCL rupture.

Consider Substance P [SP], for which the failure force was 74.3 N under setting [1] and 74.3±7.9 N under setting [2]. Besides, the ultimate stress came out at 72.33 MPa under setting [1] and 72.33±22.1 MPa under setting [2]. Also, the “histomorphology (H&E) of healing MCL” value (FNT rats, SP 75 pg/100 μl or CGRP 10 pg/100, two weeks) was “cells were more aligned”. In addition, the “mechanical strength of healing MCL (in words)” value runs as follows: (FNT rats) “greater than the strength of uninjured MCLs; also recorded: greater than that of normally innervated, intact MCLs”; (FNT rats, listed as Substance P) “completely reversed the functional deficits”.
